# Patent US20210188839A1, “COMPOUNDS AND THEIR METHODS OF USE” (Praxis Precision Medicines, Inc., priority 2016, published 2021)
# Target: T1, human Nav1.6 (hNav1.6) (Homo sapiens, UniProt Q9UQD0)
# T1 construct: expressed in transfected cells; host or cells: HEK-293
# Experiment: Modulation of late sodium current (INaL), PatchXpress high throughput electrophysiology
# Assay type: cell-based
# Conditions: HEK293; 1 μM compound; HEK-293 cells expressing recombinant hNav1.6; late current evoked by 300 nM ATX-II
# Method: Functional characterization of exemplary compounds to modulate INaL expressed by the Nav1.6 voltage-gated sodium channel was accomplished using the PatchXpress' high throughput electrophysiology platform (Molecular Devices, Sunnyvale, Calif.). HEK-293 cells expressing recombinant, human Nav1.6 (hNav1.6) were grown in DMEM/high-glucose Dulbecco's modified, 10% FBS, 2 mM sodium pyruvate, 10 mM HEPES and 400 μg/mL G418. Cells were grown to 50%-80% confluency prior to harvesting. […] The onboard liquid handling facility of the PatchXpress was used for dispensing cells and applying test compounds. Nav late currents were evoked by the application of 300 nM ATX-II. […] INaL amplitude and stability were determined by analyzing the mean current amplitude over the final 20 ms of thetest pulse. […] Percent steady-state inhibition of INaL was calculated as: [(INaL_compound)/(INaL_control)]*100, where INaL_compound and INaL_control represent INaL recorded in the presence or absence of compound, respectively.
# T1 sequence (Q9UQD0 whole entry): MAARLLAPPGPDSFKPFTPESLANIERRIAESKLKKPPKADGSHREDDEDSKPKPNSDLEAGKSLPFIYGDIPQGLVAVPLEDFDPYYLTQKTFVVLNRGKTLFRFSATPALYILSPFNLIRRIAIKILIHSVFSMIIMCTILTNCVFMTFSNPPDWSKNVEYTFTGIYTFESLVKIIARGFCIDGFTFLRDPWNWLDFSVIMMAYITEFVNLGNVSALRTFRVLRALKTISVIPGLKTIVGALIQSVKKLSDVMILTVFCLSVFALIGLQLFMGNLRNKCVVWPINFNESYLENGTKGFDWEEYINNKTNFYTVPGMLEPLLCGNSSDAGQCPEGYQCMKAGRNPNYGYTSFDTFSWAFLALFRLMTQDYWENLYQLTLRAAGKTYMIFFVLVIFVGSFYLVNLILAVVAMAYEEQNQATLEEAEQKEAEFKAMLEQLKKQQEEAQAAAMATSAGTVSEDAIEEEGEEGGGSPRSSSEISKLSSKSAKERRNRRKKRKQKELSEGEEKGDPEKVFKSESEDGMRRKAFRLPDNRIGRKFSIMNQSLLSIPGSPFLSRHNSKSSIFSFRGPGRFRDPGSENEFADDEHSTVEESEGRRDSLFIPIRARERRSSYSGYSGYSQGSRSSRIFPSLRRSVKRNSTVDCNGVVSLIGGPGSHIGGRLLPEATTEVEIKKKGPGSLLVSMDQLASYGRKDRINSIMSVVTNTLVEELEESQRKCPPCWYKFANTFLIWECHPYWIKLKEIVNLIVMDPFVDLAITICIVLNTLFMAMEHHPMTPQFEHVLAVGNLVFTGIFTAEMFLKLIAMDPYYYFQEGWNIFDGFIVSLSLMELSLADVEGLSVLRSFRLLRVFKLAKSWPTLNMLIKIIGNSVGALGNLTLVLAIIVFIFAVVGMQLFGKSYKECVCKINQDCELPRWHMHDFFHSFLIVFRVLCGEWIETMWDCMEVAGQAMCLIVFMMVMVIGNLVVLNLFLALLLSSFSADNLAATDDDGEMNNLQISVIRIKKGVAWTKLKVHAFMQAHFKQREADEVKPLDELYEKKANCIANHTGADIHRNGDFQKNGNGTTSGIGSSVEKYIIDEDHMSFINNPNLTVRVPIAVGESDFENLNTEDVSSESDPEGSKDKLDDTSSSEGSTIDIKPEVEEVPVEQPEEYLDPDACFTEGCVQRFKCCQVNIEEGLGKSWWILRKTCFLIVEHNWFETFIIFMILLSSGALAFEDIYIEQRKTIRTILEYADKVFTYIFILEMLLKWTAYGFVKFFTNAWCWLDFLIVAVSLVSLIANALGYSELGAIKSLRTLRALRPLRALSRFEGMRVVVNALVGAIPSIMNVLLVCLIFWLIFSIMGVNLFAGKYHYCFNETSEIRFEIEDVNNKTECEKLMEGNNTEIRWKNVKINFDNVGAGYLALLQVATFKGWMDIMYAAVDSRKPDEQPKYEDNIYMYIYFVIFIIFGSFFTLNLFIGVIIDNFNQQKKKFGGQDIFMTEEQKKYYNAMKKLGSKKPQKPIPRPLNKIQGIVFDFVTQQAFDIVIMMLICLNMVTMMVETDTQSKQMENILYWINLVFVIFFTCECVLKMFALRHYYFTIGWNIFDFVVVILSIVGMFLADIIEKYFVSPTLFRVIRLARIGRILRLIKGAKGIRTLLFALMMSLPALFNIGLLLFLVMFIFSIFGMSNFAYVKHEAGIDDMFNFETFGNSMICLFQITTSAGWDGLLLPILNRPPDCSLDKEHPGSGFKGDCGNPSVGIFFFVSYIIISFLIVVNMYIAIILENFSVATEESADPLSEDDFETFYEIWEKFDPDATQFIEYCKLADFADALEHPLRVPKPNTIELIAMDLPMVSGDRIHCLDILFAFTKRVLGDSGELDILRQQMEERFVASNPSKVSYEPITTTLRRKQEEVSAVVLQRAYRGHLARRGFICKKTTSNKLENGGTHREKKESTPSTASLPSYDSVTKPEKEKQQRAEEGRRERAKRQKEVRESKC
row,inhibition at 1 µM [%],SMILES
1,< 50,"COCc1cc(OC(F)(F)F)ccc1-c1cnc2ncc(C(F)(F)F)n2c1 [Compound 30, 6-[2-(methoxymethyl)-4-(trifluoromethoxy)phenyl]-3-(trifluoromethyl)imidazo[1,2-a]pyrimidine]"
2,< 50,"Cc1cc(OC(F)(F)F)ccc1-c1cnc2ncc(C(F)(F)F)n2c1 [Compound 31, 6-[2-methyl-4-(trifluoromethoxy)phenyl]-3-(trifluoromethyl)imidazo[1,2-a]pyrimidine]"
3,< 50,"Cc1nc2ncc(-c3ccc(OC(F)(F)F)cc3)cn2c1C(F)(F)F [Compound 33, 2-methyl-6-[4-(trifluoromethoxy)phenyl]-3-(trifluoromethyl)imidazo[1,2-a]pyrimidine]"
4,> 50,"FC(F)(F)c1ccc(-c2cn3c(C(F)(F)F)cnc3cn2)cc1 [Compound 34, 3-(trifluoromethyl)-6-[4-(trifluoromethyl)phenyl]imidazo[1,2-a]pyrazine]"
5,< 50,"N#CC1(c2ccc(-c3cn4c(C(F)(F)F)cnc4cn3)cc2)CC1 [Compound 35, 1-[4-[3-(trifluoromethyl)imidazo[1,2-a]pyrazin-6-yl]phenyl]cyclopropanecarbonitrile]"
6,> 50,"Fc1cc(-c2cn3c(C(F)(F)F)cnc3cn2)cnc1OCC(F)(F)F [Compound 36, 6-[5-fluoro-6-(2,2,2-trifluoroethoxy)-3-pyridyl]-3-(trifluoromethyl)imidazo[1,2-a]pyrazine]"
7,> 50,"COc1cc(OC(F)(F)F)ccc1-c1ccn2ncc(C(F)(F)F)c2c1 [Compound 42, 5-[2-methoxy-4-(trifluoromethoxy)phenyl]-3-(trifluoromethyl)pyrazolo[1,5-a]pyridine]"
8,< 50,"N#CC1(c2ccc(-c3ccn4ncc(C(F)(F)F)c4c3)cc2)CC1 [Compound 43, 1-[4-[3-(trifluoromethyl)pyrazolo[1,5-a]pyridin-5-yl]phenyl]cyclopropanecarbonitrile]"
9,< 50,"COC(C)(C)c1ccc(-c2ccn3ncc(C(F)(F)F)c3c2)cc1 [Compound 44, 5-[4-(1-methoxy-1-methyl-ethyl)phenyl]-3-(trifluoromethyl)pyrazolo[1,5-a]pyridine]"
10,> 50,"FC(F)(F)COc1ccc(-c2ccn3ncc(C(F)(F)F)c3c2)cn1 [Compound 45, 5-[6-(2,2,2-trifluoroethoxy)-3-pyridyl]-3-(trifluoromethyl)pyrazolo[1,5-a]pyridine]"
11,< 50,"Cc1cc(OC(F)(F)F)ccc1-c1cnn2ncc(C(=O)N(C)C)c2c1 [Compound 50, N,N-dimethyl-5-[2-methyl-4-(trifluoromethoxy)phenyl]pyrazolo [1,5-b]pyridazine-3-carboxamide]"

# Second part, the molecule before the results:
row,SMILES,inhibition at 1 µM [%]
1,COc1cc(OC(F)(F)F)ccc1-c1ccc2ncc(C(F)(F)F)n2c1 [Compound 2],> 50
2,FC(F)(F)COc1ccc(-c2ccc3ncc(C(F)(F)F)n3c2)cn1 [Compound 3],> 50
3,COC(C)(C)c1ccc(-c2ccc3ncc(C(F)(F)F)n3c2)cc1 [Compound 4],> 50
4,N#CC1(c2ccc(-c3ccc4ncc(C(F)(F)F)n4c3)cc2)CC1 [Compound 5],< 50
5,FC(F)(F)Oc1ccc(-c2ccc3nccn3c2)cc1 [Compound 6],< 50
6,"COc1cc(OC(F)(F)F)ccc1-c1ccn2nccc2c1 [Compound 14, 5-[2-methoxy-4-(trifluoromethoxy)phenyl]pyrazolo[1,5-a]pyridine]",> 50
7,"FC(F)(F)COc1ccc(-c2ccn3nccc3c2)cn1 [Compound 15, 5-[6-(2,2,2-trifluoroethoxy)-3-pyridyl]pyrazolo[1,5-a]pyridine]",> 50
8,FC(F)(F)Oc1ccc(-c2cnc3nccn3c2)cc1 [Compound 16],< 50
9,FC(F)(F)Oc1ccc(-c2cnc3ncc(C(F)(F)F)n3c2)cc1 [Compound 17],< 50
10,FC(F)(F)Oc1ccc(-c2ccc3nccn3n2)cc1 [Compound 18],< 50
11,FC(F)(F)Oc1ccc(-c2ccc3ncc(C(F)(F)F)n3n2)cc1 [Compound 19],< 50
12,FC(F)(F)Oc1ccc(-c2cn3ccnc3cn2)cc1 [Compound 20],< 50
13,FC(F)(F)Oc1ccc(-c2cn3c(C(F)(F)F)cnc3cn2)cc1 [Compound 21],> 50
14,"Cc1cc(OC(F)(F)F)ccc1-c1cc2ccnn2cn1 [Compound 22, 5-[2-methyl-4-(trifluoromethoxy)phenyl]pyrazolo[1,5-c]pyrimidine]",< 50
15,"Cc1cc(OC(F)(F)F)ccc1-c1cc2c(C(F)(F)F)cnn2cn1 [Compound 23, 5-[2-methyl-4-(trifluoromethoxy)phenyl]-3-(trifluoromethyl)pyrazolo[1,5-c]pyrimidine]",< 50
16,"FC(F)(F)Oc1ccc(-c2cc3ccnn3cn2)cc1 [Compound 24, 5-[4-(trifluoromethoxy)phenyl]pyrazolo[1,5-c]pyrimidine]",< 50
17,"FC(F)(F)Oc1ccc(-c2cc3c(C(F)(F)F)cnn3cn2)cc1 [Compound 25a, 5-[4-(trifluoromethoxy)phenyl]-3-(trifluoromethyl)pyrazolo[1,5-c]pyrimidine]",> 50
18,"FC(F)(F)Oc1ccc(-c2cc3c(C(F)(F)C(F)(F)F)cnn3cn2)cc1 [Compound 25b, 3-(1,1,2,2,2-pentafluoroethyl)-5-[4-(trifluoromethoxy)phenyl]pyrazolo[1,5-c]pyrimidine]",> 50
19,"Cc1cc(OC(F)(F)F)ccc1-c1cnn2nccc2c1 [Compound 26, 5-[2-methyl-4-(trifluoromethoxy)phenyl]pyrazolo[1,5-b]pyridazine]",< 50
20,"Cc1cc(OC(F)(F)F)ccc1-c1cnn2ncc(C(F)(F)F)c2c1 [Compound 27, 5-[2-methyl-4-(trifluoromethoxy)phenyl]-3-(trifluoromethyl)pyrazolo[1,5-b]pyridazine]",< 50
21,"FC(F)(F)Oc1ccc(-c2cnn3nccc3c2)cc1 [Compound 28, 5-[4-(trifluoromethoxy)phenyl]pyrazolo[1,5-b]pyridazine]",< 50
22,"FC(F)(F)Oc1ccc(-c2cnn3ncc(C(F)(F)F)c3c2)cc1 [Compound 29, 5-[4-(trifluoromethoxy)phenyl]-3-(trifluoromethyl)pyrazolo[1,5-b]pyridazine]",> 50
23,"Cc1cn2cc(-c3ccc(OC(F)(F)F)cc3)cnc2n1 [Compound 32, 2-methyl-6-[4-(trifluoromethoxy)phenyl]imidazo[1,2-a]pyrimidine]",< 50
24,"COCc1cc(OC(F)(F)F)ccc1-c1cn2c(C(F)(F)F)cnc2cn1 [Compound 41, 6-[2-(methoxymethyl)-4-(trifluoromethoxy)phenyl]-3-(trifluoromethyl)imidazo[1,2-a]pyrazine]",> 50
